# Measured values taken from US20090209535A1, “6-ETHER/THIOETHER-PURINES AS TOPOISOMERASE II CATALYTIC INHIBITORS AND THEIR USE IN THERAPY” (TOPOTARGET A/S, priority 2005, published 2009).
# Legend:
# [1] = target: T1, bisdioxopiperazine resistant Y165S mutant human topoisomerase II α (Homo sapiens, UniProt P11388, Y165S); type: biochemical; details: FIG. 2-B
# T1 construct: made in house; host or cells: yeast (over-expressing yeast cells)
# [2] = target: T2, human topoisomerase II α-DNA covalent complexes (Homo sapiens, UniProt P11388); assay: Topoisomerase II DNA cleavage assay (phenol-chloroform extraction, Δcpm); type: biochemical; details: 1000 μM
# T2 construct: made in house; host or cells: yeast (over-expressing yeast cells)
# Text: In order to determine the ability of NSC 35866 to increase the level of topoisomerase II-DNA covalent complexes on DNA in vitro, a new and highly sensitive topoisomerase II DNA cleavage assay having a numeric readout was developed. […] The DNA substrate is a 950 bp linear ^3H-labelled DNA synthesized by PCR in the presence of ^3H-dATP. […] The DNA fragment was isolated from unincorporated dNTPs by ethanol precipitation at 0.3 M NaCl, followed by washing in 70% ethanol. The specific activity of the fragment was typically 10,000-20,000 cpm/μg. Before starting the assay, a drug dilution series comprising 10× the final drug concentration was made. Reaction mixtures containing 100 ng of the 950 bp linear ^3H-labelled DNA, 300 ng human topoisomerase II q, topoisomerase II cleavage buffer (10 mM TRIS-HCL pH 7.9, 50 mM NaCl, 50 mM KCl, 5 mM MgCl2, 1 mM EDTA, 15 μg/mL BSA and 1 mM Na2ATP), and increasing concentrations of drug in 50 μL reaction volumes were then incubated 10 minutes at 37° C. A “no topoisomerase II” sample and a “no drug” sample were always included as controls. Next, the cleavable complex was trapped by adding 5 μL 10% SDS. After vigorous vortexing, 45 uL TE buffer, pH=8.0, was added to obtain 100 μL per sample. 100 μL phenol:chloroform:isoamyl alcohol (25:24:1) equilibrated with TE buffer, pH=8.0, was then added, and the samples were vortexed vigorously for 30 seconds. Finally, the samples were centrifuged at 20,000 g for 2 minutes and 90 μL of the upper water phase was used for scintillation counting using 15 mL of Ultima gold scintillation fluid (Packard).
# In order to establish whether NSC 35866 inhibits the DNA strand passage reaction of topoisomerase II by stabilising a covalent reaction intermediate, a new and highly sensitive topoisomerase II DNA cleavage assay having a numeric read-out was developed. This assay is based on the fact that after extraction with phenol-chloroform, protein-bound DNA is removed from the water phase, while naked DNA remains in the water phase. […] Consequently, in reactions containing topoisomerase II and linear DNA, the ability of compounds to remove DNA from the water phase after phenol-chloroform extraction should reflect their potency as topoisomerase II poisons. This assay was first validated by incubating 100 ng of a linear 950 bp PCR DNA fragment with 300 ng of purified human topoisomerase II α in the presence of increasing concentrations of the etoposide and m-AMSA. The DNA fragment was ^3H labelled by performing PCR in the presence of ^3H-dATP. In these experiments, a “no topoisomerase II” sample was always included to determine the level of radioactivity (DNA) retained in the water-phase when no enzyme is present. Within each experiment, the CPM values retained in the water phase in the topoisomerase II reactions were then subtracted from this background CPM value to give Δcpm. Consequently, the Δcpm values of samples with no drug added represent the background level of topoisomerase II-DNA covalent complexes present in the reaction mixture under the assay conditions, while the Δcpm levels in the presence of drugs represent the levels of poison-induced topoisomerase II-DNA covalent complexes.
# human SCLC NCI-H69 cells = assay: Protection from etoposide-induced cytotoxicity, NCI-H69; type: cell-based
# Method: Human small cell lung cancer (SCLC) OC—NYH (de Leij et al., 1985) and NCI-H69 cells (Cuttitta et al., 1981) were grown in RPMI-1640 medium supplemented with 10% fetal calf serum, 100 U/mL penicillin-streptomycin at 37° C. in a humidified atmosphere containing 5% CO2 in the dark.
# Clonogenic assay was performed essentially as described in Jensen et al., 1993. […] Cells were then plated in 0.3% agar in 6 cm petri dishes with sheep red blood cells as feeder layer in triplicate, and were incubated under the same conditions as described above. Plates were counted after 3 weeks.
# [3] = target: T3, wild-type human topoisomerase II α (Homo sapiens, UniProt P11388); assay: Topoisomerase II DNA strand passage assay (kDNA decatenation), wild-type enzyme; type: biochemical; details: wild-type enzyme
# T3 construct: made in house; host or cells: yeast (over-expressing yeast cells)
# Method: Topoisomerase II catalytic activity (DNA strand passage activity) was measured by using a filter-based kDNA decatenation assay as described in Jensen et al., 2002. Briefly, 200 ng ^3H labelled kDNA isolated from C. fasciculata was incubated with increasing concentrations of drug in 20 μL reaction buffer containing 10 mM TRIS-HCl pH 7.7, 50 mM NaCl, 50 mM KCl, 5 mM MgCl2, 1 mM EDTA, 15 μg/mL BSA and 1 mM ATP using two units of purified wild-type or Y165S mutant topoisomerase II α for 20 minutes at 37° C. (where one unit of activity is defined as the amount of enzyme required for complete decatenation in the absence of drug). After addition of 5× stop buffer (5% Sarkosyl, 0.0025% bromophenol blue, and 50% glycerol), unprocessed kDNA network and decatenated DNA mini-circles were separated by filtering, and the amount of unprocessed kDNA in each reaction was determined by scintillation counting.
# FIG. 2 describes the results of studies of the inhibition of topoisomerase II DNA strand passage activity by increasing concentrations of NSC 35866. Inhibition of human topoisomerase II α DNA strand passage activity was assessed by decatenation of tritium-labelled Crithidia fasiculata kDNA using a filter-based assay to separate unprocessed kDNA network from decatenated mini-circles. […] Error bars represent SEM of three independent experiments in panel A and two independent experiments in panel B.
# Inhibition of human topoisomerase II α DNA strand passage activity was determined by decatenation of tritium labelled Crithidia fasiculata kDNA as described for FIG. 2. Error bars represent SEM of 3 or 4 independent experiments.
# human SCLC OC—NYH cells [4] = assay: Alkaline elution assay (DNA breaks); type: cell-based
# Method: Alkaline elution assay was performed as described in Kohn et al., 1976 with modifications as described in Sehested et al., 1998. Briefly, to assess the ability of NSC 35866 to protect against etoposide-induced DNA breaks, cells were incubated with increasing concentrations of NSC 35866 for 10 minutes, before 3 μM etoposide was added to the samples. The cells were then co-incubated with 3 μM etoposide along with the same concentrations of NSC 35866 for 60 minutes. Some samples contained no etoposide in order to assess whether NSC 35866 induced DNA breaks by itself. After incubation with drug, cells were lysed and the DNA fragments eluted. DNA in the experimental OC—NYH cells was metabolically labelled by ^14C-thymidine incorporation while DNA in the internal control L1210 cells was metabolically labelled by ^3H-thymidine incorporation.
# FIG. 9 describes the results of studies of the ability of NSC 35866 to antagonise DNA breaks induced by etoposide in human SCLC OC—NYH cells in a dose dependent manner. Alkaline DNA elution was used to detect DNA fragmentation induced by 3 μM etoposide in the presence of increasing concentrations of NSC 35866 as described herein. H202 treated mouse leukemic L1210 cells were used as internal control for DNA fragmentation. The DNA of the experimental OC—NYH cells was ^14C-labelled while the DNA of the L1210 cells was 3H-labelled.
# human SCLC OC—NYH cells [5] = assay: Clonogenic assay, antagonism of etoposide-induced cytotoxicity; type: cell-based; details: 20 μM etoposide, one hour; 20 min pre-exposure
# Method: Cells were then plated in 0.3% agar in 6 cm petri dishes with sheep red blood cells as feeder layer in triplicate, and were incubated under the same conditions as described above. Plates were counted after 3 weeks.
# 20 μM etoposide was then added, and the cells were incubated for one hour. Next, the drugs were washed out and the cells were plated and counted after three weeks as described herein.
# T3 sequence (P11388 whole entry): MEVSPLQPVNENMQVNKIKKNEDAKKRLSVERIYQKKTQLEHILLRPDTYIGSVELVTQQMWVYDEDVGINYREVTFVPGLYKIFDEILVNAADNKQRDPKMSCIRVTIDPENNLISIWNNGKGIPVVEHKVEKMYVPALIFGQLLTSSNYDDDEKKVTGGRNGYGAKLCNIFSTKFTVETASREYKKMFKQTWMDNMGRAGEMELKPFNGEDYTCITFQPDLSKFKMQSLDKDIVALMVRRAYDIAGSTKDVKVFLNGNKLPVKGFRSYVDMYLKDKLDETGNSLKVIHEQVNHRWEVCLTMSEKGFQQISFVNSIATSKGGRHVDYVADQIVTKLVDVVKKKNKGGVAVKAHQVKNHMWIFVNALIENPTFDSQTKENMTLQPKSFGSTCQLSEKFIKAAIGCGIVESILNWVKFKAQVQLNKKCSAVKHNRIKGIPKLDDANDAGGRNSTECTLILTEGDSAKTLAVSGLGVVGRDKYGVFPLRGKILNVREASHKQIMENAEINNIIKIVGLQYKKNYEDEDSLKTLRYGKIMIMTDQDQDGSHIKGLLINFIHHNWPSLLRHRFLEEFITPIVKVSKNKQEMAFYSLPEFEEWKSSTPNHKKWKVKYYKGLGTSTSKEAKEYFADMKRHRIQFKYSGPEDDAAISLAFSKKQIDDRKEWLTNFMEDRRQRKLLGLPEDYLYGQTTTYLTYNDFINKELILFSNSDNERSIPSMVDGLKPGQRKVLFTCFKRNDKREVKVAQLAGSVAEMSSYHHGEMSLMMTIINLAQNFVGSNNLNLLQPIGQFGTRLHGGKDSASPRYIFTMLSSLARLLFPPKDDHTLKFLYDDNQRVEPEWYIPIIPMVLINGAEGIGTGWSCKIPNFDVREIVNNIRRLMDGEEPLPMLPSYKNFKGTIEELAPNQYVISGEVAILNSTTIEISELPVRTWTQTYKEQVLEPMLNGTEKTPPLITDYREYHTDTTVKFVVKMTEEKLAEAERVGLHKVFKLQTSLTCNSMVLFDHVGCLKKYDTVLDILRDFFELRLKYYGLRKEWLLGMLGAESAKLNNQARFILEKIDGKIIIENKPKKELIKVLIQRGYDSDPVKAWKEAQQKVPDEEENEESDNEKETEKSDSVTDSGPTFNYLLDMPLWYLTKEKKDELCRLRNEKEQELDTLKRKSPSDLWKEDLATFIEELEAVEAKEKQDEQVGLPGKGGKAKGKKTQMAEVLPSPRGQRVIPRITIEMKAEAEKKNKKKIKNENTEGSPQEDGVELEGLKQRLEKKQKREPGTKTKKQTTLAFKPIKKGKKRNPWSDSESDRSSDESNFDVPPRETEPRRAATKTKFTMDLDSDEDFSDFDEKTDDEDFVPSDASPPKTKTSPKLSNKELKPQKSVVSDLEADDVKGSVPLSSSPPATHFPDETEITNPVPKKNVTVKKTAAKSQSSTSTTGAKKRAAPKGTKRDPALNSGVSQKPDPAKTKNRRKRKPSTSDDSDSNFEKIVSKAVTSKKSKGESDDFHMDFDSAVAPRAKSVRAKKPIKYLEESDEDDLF
# T1 sequence (P11388 whole entry Y165S): as the sequence (P11388 whole entry) above, with Y165S counted along it
# T2 sequence (P11388 whole entry, one chain of several): as the sequence (P11388 whole entry) above
smiles,measurement,setting,value
"Nc1nc(SCCc2ccccc2)c2nc[nH]c2n1 [NSC 35866, 2-amino-6-(phenylethylthio)-purine]","inhibition of catalytic activity of the Y165S protein, in words",[1],capable of doing so
same,"effect on level of topoisomerase II-DNA covalent complexes, in words",[2],no measurable effect
same,"protection from etoposide-induced cytotoxicity, in words",human SCLC NCI-H69 cells,capable of protecting
same,concentrations at which DNA strand passage activity is inhibited,[3]; FIG. 2-A,above 250 μM
same,"inhibition of DNA strand passage (decatenation) activity, in words",[3]; FIG. 2-A and FIG. 5,clearly less potent in comparison with the reference compound ICRF-187
same,"effect on DNA breaks induced by 3 μM etoposide, in words","human SCLC OC—NYH cells [4]; 30 μM, repeated assay",no detectable effect
same,"effect on DNA breaks induced by 3 μM etoposide, in words",human SCLC OC—NYH cells [4]; 100 μM,no detectable effect
same,"effect on DNA breaks induced by 3 μM etoposide, in words","human SCLC OC—NYH cells [4]; 100 μM, repeated assay",no detectable effect
same,"effect on DNA breaks induced by 3 μM etoposide, in words","human SCLC OC—NYH cells [4]; 300 μM, repeated assay",partly antagonised
same,"effect on DNA breaks induced by 3 μM etoposide, in words",human SCLC OC—NYH cells [4]; 500 μM,partly antagonised
same,"effect on DNA breaks induced by 3 μM etoposide, in words",human SCLC OC—NYH cells [4]; 1000 μM,completely antagonised
same,"DNA breaks induced by the drug alone, in words","human SCLC OC—NYH cells [4]; concentrations up to 1000 μM, no etoposide",does not induce detectable levels of DNA breaks
same,reduction of etoposide-induced cytotoxicity,human SCLC OC—NYH cells [5],up to 50 fold
